Measured values as given in the supplement of paper PMC10307832.

Key:
Experiment in all cases: relative viability (nuclei count vs DMSO), 5 days (fraction); higher = more cells survive
[1] = compound: CCN(CCO)CCCC(C)Nc1ccnc2cc(Cl)ccc12 [Hydroxychloroquine] + O=C(c1cc(Cc2n[nH]c(=O)c3ccccc23)ccc1F)N1CCN(C(=O)C2CC2)CC1 [Olaparib] (partner 8 µM)
Summary of the method: (§1)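 Relative viability is defined as nuclei in treated wells over nuclei in vehicle wells. Duplicate plates were run and medians reported. Lung cancer cell lines in 1536-well plates were dosed by pin tool one day after seeding, with one drug or with a fixed anchor-drug dose plus five library-drug doses (not always all listed) in √10 steps, and nuclei were counted after 5 days.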

[2] = compound: CCN(CCO)CCCC(C)Nc1ccnc2cc(Cl)ccc12 [Hydroxychloroquine] + COc1cc2c(Oc3ccc(NC(=O)C4(C(=O)Nc5ccc(F)cc5)CC4)cc3F)ccnc2cc1OCCCN1CCOCC1 [Foretinib] (partner 0.25 µM)
Summary of the method: as §1

[3] = compound: CCN(CCO)CCCC(C)Nc1ccnc2cc(Cl)ccc12 [Hydroxychloroquine] + Cc1nc(NC(=O)N2CCC[C@H]2C(N)=O)sc1-c1ccnc(C(C)(C)C(F)(F)F)c1 [Alpelisib] (partner 2 µM)
Summary of the method: as §1

[4] = compound: CCN(CCO)CCCC(C)Nc1ccnc2cc(Cl)ccc12 [Hydroxychloroquine] + Nc1nc2[nH]cc(CCc3ccc(C(=O)N[C@@H](CCC(=O)O)C(=O)O)cc3)c2c(=O)[nH]1 [Pemetrexed] (partner 0.2 µM)
Summary of the method: as §1

Cell Line | relative viability ([1]; first compound 0.5 µM) | relative viability ([1]; first compound 1.581 µM) | relative viability ([1]; first compound 5 µM) | relative viability ([1]; first compound 15.81 µM) | relative viability ([1]; first compound 50 µM) | relative viability ([2]; first compound 0.5 µM) | relative viability ([2]; first compound 1.581 µM) | relative viability ([2]; first compound 5 µM) | relative viability ([2]; first compound 15.81 µM) | relative viability ([2]; first compound 50 µM) | relative viability ([3]; first compound 0.5 µM) | relative viability ([3]; first compound 1.581 µM) | relative viability ([3]; first compound 5 µM) | relative viability ([3]; first compound 15.81 µM) | relative viability ([3]; first compound 50 µM) | relative viability ([4]; first compound 0.5 µM) | relative viability ([4]; first compound 1.581 µM) | relative viability ([4]; first compound 5 µM) | relative viability ([4]; first compound 15.81 µM) | relative viability ([4]; first compound 50 µM)
HOP-62 | 0.368 | 0.232 | 0.443 | 0.496 | 0.394 | 1.15 | 1.24 | 1.14 | 1.27 | 1.23 | 0.997 | 1.18 | 1.15 | 1 | 1.04 | 0.331 | 0.312 | 0.33 | 0.344 | 0.343
NCI-H358 | 0.675 | 0.585 | 0.522 | 0.973 | 0.571 | 0.639 | 0.628 | 0.643 | 0.593 | 0.827 | 0.832 | 0.698 | 0.775 | 0.91 | 0.8 | 0.164 | 0.166 | 0.179 | 0.161 | 0.179
SK-MES-1 | 0.812 | 0.683 | 0.724 | 0.738 | 0.671 | 0.883 | 0.822 | 1.04 | 0.901 | 0.792 | 0.697 | 0.765 | 1.01 | 0.952 | 0.929 | 1.03 | 0.73 | 1.02 | 1.05 | 0.945
NCI-H1666 | 0.669 | 0.727 | 0.719 | 0.749 | 0.693 | 0.969 | 0.949 | 0.876 | 0.894 | 0.872 | 0.99 | 0.996 | 0.873 | 0.882 | 0.668 | 0.878 | 0.765 | 0.846 | 0.755 | 0.844
NCI-H1355 | 0.796 | 0.685 | 0.661 | 0.709 | 0.782 | 0.941 | 0.965 | 0.956 | 1.02 | 0.979 | 0.81 | 0.744 | 0.837 | 0.833 | 0.86 | 1.11 | 0.997 | 0.906 | 1.05 | 1.14
HCC-827 | 0.645 | 0.618 | 0.591 | 0.54 | 0.561 | 1.13 | 0.956 | 1.05 | 1.2 | 1.08 | 1.05 | 1.03 | 0.939 | 1.03 | 0.979 | 0.225 | 0.275 | 0.259 | 0.259 | 0.23
HARA | 0.64 | 0.838 | 1.04 | 1.14 | 0.487 | 0.957 | 0.918 | 0.891 | 0.921 | 1.07 | 0.763 | 0.856 | 0.863 | 0.805 | 0.841 | 0.286 | 0.231 | 0.233 | 0.263 | 0.251
HCC-366 | 0.312 | 0.362 | 0.354 | 0.342 | 0.375 | 0.938 | 0.891 | 0.902 | 0.945 | 0.923 | 0.569 | 0.375 | 0.368 | 0.434 | 0.482 | 0.157 | 0.151 | 0.14 | 0.18 | 0.177
NCI-H322M | 0.741 | 0.75 | 0.753 | 0.725 | 0.751 | 1 | 0.937 | 0.934 | 1.03 | 0.935 | 0.864 | 0.814 | 0.864 | 0.758 | 0.769 | 0.639 | 0.609 | 0.601 | 0.608 | 0.592
NCI-H2347 | 0.594 | 0.563 | 0.588 | 0.608 | 0.541 | 0.936 | 0.663 | 0.885 |  | 0.683 | 1.06 | 0.904 | 1.02 | 1.11 | 0.956 | 0.481 | 0.401 | 0.444 | 0.413 | 0.452
NCI-H1975 | 0.816 | 0.767 | 0.856 | 0.85 | 0.911 | 0.942 | 0.866 | 0.988 | 1.05 | 0.97 | 0.642 | 0.668 | 0.631 | 0.697 | 0.75 | 0.281 | 0.325 | 0.309 | 0.297 | 0.301
NCI-H441 | 0.543 | 0.551 | 0.498 | 0.547 | 0.553 | 0.919 | 1.07 | 1.02 | 1.02 | 0.861 |  | 0.627 | 0.816 | 0.746 | 0.625 | 0.234 | 0.258 | 0.284 | 0.227 | 0.278
A-427 | 0.816 | 0.702 | 0.61 | 0.691 | 0.816 | 1.05 | 1.09 | 0.974 | 1.15 | 1.16 | 1.06 | 1.03 | 1.04 | 0.956 | 1.1 | 0.948 | 1.05 | 0.926 | 0.838 | 1.01
LCLC-97TM1 | 0.529 | 0.371 | 0.324 | 0.453 | 0.29 | 0.989 | 0.934 | 0.979 | 0.983 | 1.01 | 0.286 | 0.223 | 0.262 | 0.244 | 0.286 | 0.199 | 0.226 | 0.169 | 0.179 | 0.175
HCC-15 | 0.688 | 0.675 | 0.735 | 0.817 | 0.626 | 1.1 | 1.04 | 1.04 | 1.04 | 1.05 | 0.925 | 0.841 | 0.839 | 0.879 | 0.909 | 0.231 | 0.241 | 0.205 | 0.226 | 0.231
NCI-H650 | 0.423 | 0.364 | 0.326 | 0.374 | 0.315 | 1.04 | 0.888 | 0.983 | 1.03 | 0.97 | 1.08 | 1.17 |  | 1.1 | 1.17 | 0.979 | 0.868 | 0.966 | 1.06 | 0.889
UMC-11 | 0.342 | 0.325 | 0.365 | 0.366 | 0.353 |  | 0.978 | 1.12 | 1.04 | 1.19 | 0.841 | 0.956 | 0.962 | 1.06 | 1.2 | 0.751 | 0.751 | 0.826 | 0.976 | 0.825
